Laboratory results taken from patent US12678463B2, “Activated mesenchymal stem cells for treating limb ischemia” (Cellin Technologies OÜ, priority 2019, dated 2026).

How the values were obtained:
Type in all cases: cell-based, human
AdMSCs [1] = experiment: Cell cycle analysis by propidium iodide staining and flow cytometry; details: 24 h after treatment; for percentage of cells in G2/M cell cycle phase: vs non-treated control; for percentage of cells in G0/G1 phase: non-treated control 82%, paracetamol 4.4 mM, diclofenac 10 μM, metamizole 10 μM, ketoprofen 50 μM, prednisolone 0.1 μM
Procedure: FIG. 2. Cell cycle analysis of control and AIDs-treated AdMSCs. AIDs-treated and control AdMSCs were stained with propidium iodide (PI) 24 h after treatments and analyzed using flow cytometry by BD Accuri C6.
The percentage of cells in G0/1 phase was lower in the cultures treated with metamizole (Analgin™) (65%) and paracetamol (71%), whereas the percentage of cells in G2/M cell cycle phase was increased in these cultures (FIG. 2).

AdMSCs [2] = experiment: ELISA of secreted inflammatory factors in culture media of AdMSCs; details: for secreted IL-1RN concentration / secreted IL6 concentration / secreted CCL2 concentration / secreted CXCL8 concentration: AIDs-treated 24 h; for secreted IL-1RN concentration: control 2.3 ± 0.03; for secreted IL6 concentration: control 40 ± 2; for secreted CCL2 concentration: control 96 ± 3.2; for secreted CXCL8 concentration: control 277 ± 12.7
AdMSCs [3] = experiment: WST-1 metabolic activity assay of AdMSCs treated with anti-inflammatory drugs; details: first 24 hours; metamizole 10 μM
Procedure: AdMSCs metabolic activity was measured at 1, 2, 3 and 5 days after the treatments.
During the first 48 hours, all analyzed AIDs stimulated the metabolic activity of AdMSCs.

LPS-stimulated AdMSCs = experiment: RT-qPCR of inflammatory gene mRNA in LPS-stimulated AIDs-treated AdMSCs; details: 24 hours exposure, vs LPS-treated cells
Procedure: FIG. 4. Relative mRNA expression of inflammatory genes in LPS-stimulated and AIDs-treated for 24 h AdMSCs represented as heat map. Expression levels were measured in triplicates by RT-qPCR and normalized with GAPDH mRNA expression levels. Data from LPS-stimulated AIDs-treated AdMSCs were calculated as a relative fold difference compared to LPS-treated cells and converted to the log scale. The quantitative changes in gene expression are represented by shading: darker shade indicates up-regulation, whereas lighter shade indicates down-regulation. Expression data were visualized using GENE-E software.
FIG. 6. Heat map of the expression profile of inflammatory genes in LPS-stimulated and AIDs-treated AdMSCs. Inflammatory genes mRNA expression levels of LPS-stimulated and AIDs-treated for 48 h (A) and 72 h (B) AdMSCs were calculated as a fold difference compared to LPS-treated AdMSCs and represented as heat maps. Expression levels of inflammatory gene mRNAs were measured in triplicates by RT-qPCR, normalized with GAPDH mRNA levels and converted to the log scale. Positive values (darker shade) indicate higher expression, and negative values (lighter shade) lower expression relatively to the control LPS-treated AdMSCs.
Effects of AIDs on mRNA expression of inflammatory cytokines in AdMSCs were analyzed using RT-qPCR technique. Analyses results were visualized as a heat map graph using GENE-E platform (FIG. 4). Short-term treatment of AdMSCs by AIDs affected the expression of inflammatory cytokines. […] Expression of pro-inflammatory cytokines CCL2, CCL3, TNF, IL6, ILIA and ILIB was suppressed by ketoprofen and metamizole (Analgin™) treatments.
Effects of repeated AIDs treatments (48 and 72 h) on mRNA expression of cytokines in AdMSCs were analyzed using RT-qPCR technique. Differential expression of cytokine genes is represented as a heat map in FIG. 6. […] Upon exposure to various drugs, complex expression pattern of pro- and anti-inflammatory factors were observed. […] However, the stable induced expression of anti-inflammatory factors (IL4, TNFAIP6, IDO1) was not observed.

AdMSCs [4] = experiment: ELISA of secreted inflammatory factors in culture media of AdMSCs; details: for effect on CCL2 level / effect on CXCL8 level / effect on IL6 level: LPS-stimulated AdMSC cultures, 24 h; for secreted IL-1RN concentration / secreted IL6 concentration / secreted CCL2 concentration / secreted CXCL8 concentration: LPS-stimulated, AIDs-treated 24 h; for secreted IL-1RN concentration: control + LPS 61 ± 18; for secreted IL6 concentration: control + LPS 210 ± 22; for secreted CCL2 concentration: control + LPS 461 ± 19.9; for secreted CXCL8 concentration: control + LPS 2373 ± 109; for IL-1RN level in culture media over time / IL6 level in culture media over time: LPS-treated cultures, single treatment; for IL-1RN level in culture media over time: serum-deficient, 24, 48 and 72 h; for IL6 level in culture media over time: serum-deficient, 24, 48 and 72 h (prednisolone: at 72 h)
Procedure: FIG. 5. Changes of inflammatory factors in culture media. Secreted IL6, CXCL8, CCL2 and IL1RN levels were measured from the conditional media of control, LPS-stimulated, and LPS-stimulated and paracetamol or prednisolone-treated AdMSCs by ELISA at 24, 48 and 72 h and represented as normalized to control 24 h probe.
To mimic inflammatory conditions, AdMSCs were exposed to lipopolysaccharide (LPS) prior to AIDs treatments. […] Then, LPS-treated AdMSCs were exposed to AIDs to study their effect on cytokines in inflammatory conditions.

AdMSCs [5] = experiment: RT-qPCR of angiogenic marker mRNA in AIDs-treated AdMSCs; details: 24 h treatment, relative to untreated AdMSCs, normalized with GAPDH
Procedure: VEGFA, HGF, bFGF and TEK mRNA expression levels in AdMSCs treated with AIDs for 24 h were measured in triplicates by RT-qPCR and normalized with GAPDH mRNA expression levels. Data from AIDs-treated cells were calculated relatively to control untreated AdMSCs and results are represented in a log scale. Positive values indicated increased and negative values decreased mRNA levels compared to control untreated cells.
Numerous soluble factors produced by MSCs are involved in the regulation of angiogenesis and neovascularisation in vivo (Estrada et al., 2009). […] The effect of the AIDs on expression of angiogenic factors in AdMSCs was analyzed. Different AIDs affected the expression of angiogenic factors differently either stimulating or suppressing their expression.

[6] = standard culture conditions, no LPS
[7] = LPS-treated cultures, single treatment, serum-deficient, 24, 48 and 72 h

## Cc1c(N(C)CS(=O)(=O)O)c(=O)n(-c2ccccc2)n1C [metamizole (Analgin™), metamizole]
AdMSCs [1]
  percentage of cells in G2/M cell cycle phase: increased
  percentage of cells in G0/G1 phase: 65%
AdMSCs [2]; no LPS
  secreted IL-1RN concentration: 3.9 ± 0.03 pg/mL
  secreted IL6 concentration: 30 ± 1 pg/mL
  secreted CCL2 concentration: 109 ± 3.2 pg/mL
  secreted CXCL8 concentration: 341 ± 4.7 pg/mL
AdMSCs [2]; LPS-stimulated AdMSC cultures, 24 h
  effect on IL1RN expression: Inhibitory effect
AdMSCs [2]; [6]
  effect on synthesis and secretion of immunomodulatory factors: minor effect
AdMSCs [3]
  cellular metabolism (WST-1 metabolic activity): significantly stimulated
LPS-stimulated AdMSCs
  expression of pro-inflammatory cytokines CCL2, CCL3, TNF, IL6, ILIA and ILIB (mRNA): suppressed
AdMSCs [4]
  effect on CCL2 level: Inhibitory effect
  secreted IL-1RN concentration: 12 ± 1 pg/mL
  secreted IL6 concentration: 180 ± 29 pg/mL
  secreted CCL2 concentration: 313 ± 43.9 pg/mL
  secreted CXCL8 concentration: 1816 ± 121 pg/mL
AdMSCs [5]
  HGF mRNA expression: up-regulation
  TEK mRNA expression: up-regulation
  VEGFA mRNA expression: up-regulation
  bFGF mRNA expression: up-regulation

## C[C@]12C=CC(=O)C=C1CC[C@@H]1[C@@H]2[C@@H](O)C[C@@]2(C)[C@H]1CC[C@]2(O)C(=O)CO [prednisolone]
AdMSCs [1]
  percentage of cells in G0/G1 phase: 77%
AdMSCs [2]; no LPS
  secreted IL-1RN concentration: 7.3 ± 0.20 pg/mL
  secreted IL6 concentration: 30 ± 2 pg/mL
  secreted CCL2 concentration: 100 ± 12.2 pg/mL
  secreted CXCL8 concentration: 35 ± 0.1 pg/mL
AdMSCs [2]; [7]
  CCL2 level in culture media over time: significantly stimulated
AdMSCs [2]; [6]
  effect on synthesis and secretion of immunomodulatory factors: minor effect
AdMSCs [4]
  effect on CXCL8 level: significantly reduced
  effect on IL6 level: significantly reduced
  secreted IL-1RN concentration: 33 ± 2 pg/mL
  secreted IL6 concentration: 50 ± 12 pg/mL
  secreted CCL2 concentration: 314 ± 23.2 pg/mL
  secreted CXCL8 concentration: 402 ± 51 pg/mL
  IL-1RN level in culture media over time: inhibited
  IL6 level in culture media over time: moderately induced
AdMSCs [5]
  HGF mRNA expression: inhibited
  TEK mRNA expression: opposite effect
  VEGFA mRNA expression: inhibited
  bFGF mRNA expression: opposite effect

## CC(=O)Nc1ccc(O)cc1 [paracetamol]
AdMSCs [1]
  percentage of cells in G2/M cell cycle phase: increased
  percentage of cells in G0/G1 phase: 71%
AdMSCs [2]; no LPS
  secreted IL-1RN concentration: 11.0 ± 0.65 pg/mL
  secreted IL6 concentration: 0 pg/mL
  secreted CCL2 concentration: 8 ± 0.4 pg/mL
  secreted CXCL8 concentration: 11 ± 0.1 pg/mL
AdMSCs [2]; [7]
  CCL2 level in culture media over time: lowered
  CXCL8 level in culture media over time: no significant effects
AdMSCs [2]; [6]
  CCL2 level in culture media compared to untreated cells: significant reduction
  CXCL8/IL8 level in culture media compared to untreated cells: significant reduction
  IL6 level in culture media compared to untreated cells: significant reduction
  effect on synthesis and secretion of immunomodulatory factors: minor effect
LPS-stimulated AdMSCs
  TGFβ1 and TGFβ3 mRNA expression: suppressed
  TGFβ2 mRNA expression: stimulated
AdMSCs [4]
  effect on CXCL8 level: significantly reduced
  effect on IL6 level: significantly reduced
  secreted IL-1RN concentration: 33 ± 9 pg/mL
  secreted IL6 concentration: 90 ± 14 pg/mL
  secreted CCL2 concentration: 270 ± 29.9 pg/mL
  secreted CXCL8 concentration: 623 ± 41 pg/mL
  IL-1RN level in culture media over time: no significant effects
  IL6 level in culture media over time: no significant effects
AdMSCs [5]
  HGF mRNA expression: inhibited
  TEK mRNA expression: strongly suppressed
  VEGFA mRNA expression: inhibited
  bFGF mRNA expression: induced

## CC(C(=O)O)c1cccc(C(=O)c2ccccc2)c1 (centres unmarked) [ketoprofen]
AdMSCs [1]
  percentage of cells in G0/G1 phase: 80%
AdMSCs [2]; no LPS
  secreted IL-1RN concentration: 0 pg/mL
  secreted IL6 concentration: 10 ± 1 pg/mL
  secreted CCL2 concentration: 165 ± 23.4 pg/mL
  secreted CXCL8 concentration: 301 ± 0.3 pg/mL
AdMSCs [2]; [6]
  effect on synthesis and secretion of immunomodulatory factors: minor effect
LPS-stimulated AdMSCs
  expression of pro-inflammatory cytokines CCL2, CCL3, TNF, IL6, ILIA and ILIB (mRNA): suppressed
AdMSCs [4]
  effect on CCL2 level: no effect
  effect on CXCL8 level: stimulated
  effect on IL6 level: stimulated
  secreted IL-1RN concentration: 12 ± 0.5 pg/mL
  secreted IL6 concentration: 440 ± 143 pg/mL
  secreted CCL2 concentration: 451 ± 31.8 pg/mL
  secreted CXCL8 concentration: 2509 ± 68 pg/mL
AdMSCs [5]
  HGF mRNA expression: up-regulation
  TEK mRNA expression: up-regulation
  VEGFA mRNA expression: up-regulation
  bFGF mRNA expression: up-regulation

## O=C(O)Cc1ccccc1Nc1c(Cl)cccc1Cl [diclofenac]
AdMSCs [1]
  percentage of cells in G0/G1 phase: 81%
AdMSCs [2]; no LPS
  secreted IL6 concentration: 50 ± 1 pg/mL
  secreted CCL2 concentration: 64 ± 8.4 pg/mL
AdMSCs [2]; [6]
  effect on synthesis and secretion of immunomodulatory factors: minor effect
LPS-stimulated AdMSCs
  TGFβ1 and TGFβ3 mRNA expression: suppressed
  TGFβ2 mRNA expression: stimulated
AdMSCs [4]
  effect on CCL2 level: no effect
  effect on CXCL8 level: stimulated
  effect on IL6 level: stimulated
  secreted IL-1RN concentration: 17 ± 2 pg/mL
  secreted IL6 concentration: 390 ± 4 pg/mL
  secreted CXCL8 concentration: 2807 ± 361 pg/mL
AdMSCs [5]
  HGF mRNA expression: no effect
  TEK mRNA expression: no effect
  VEGFA mRNA expression: no effect
  bFGF mRNA expression: no effect
